Numbers after ± are expanded uncertainties.
Assay: xn = mol fraction of the nth substance listed
Conditions: 101.3 kPa, Liquid

CCOC(=O)OCC [diethyl carbonate] + CCCCCO
Conditions | viscosity [mPa·s]
293.15 K, x1 = 0.0496 | 3.384 ± 0.11
293.15 K, x1 = 0.1016 | 2.868 ± 0.092
293.15 K, x1 = 0.2034 | 2.125 ± 0.068
293.15 K, x1 = 0.3124 | 1.618 ± 0.052
293.15 K, x1 = 0.3801 | 1.412 ± 0.045
293.15 K, x1 = 0.5085 | 1.162 ± 0.037
293.15 K, x1 = 0.6047 | 1.051 ± 0.033
293.15 K, x1 = 0.7068 | 0.955 ± 0.03
293.15 K, x1 = 0.8058 | 0.88 ± 0.028
293.15 K, x1 = 0.9058 | 0.825 ± 0.026
293.15 K, x1 = 0.9521 | 0.804 ± 0.025
293.15 K, x1 = 1 | 0.795 ± 0.025
298.15 K, x1 = 0.0459 | 2.91 ± 0.093
298.15 K, x1 = 0.0984 | 2.492 ± 0.08
298.15 K, x1 = 0.2067 | 1.857 ± 0.059
298.15 K, x1 = 0.3012 | 1.497 ± 0.048
298.15 K, x1 = 0.4002 | 1.242 ± 0.039
298.15 K, x1 = 0.5091 | 1.067 ± 0.034
298.15 K, x1 = 0.5884 | 0.972 ± 0.031
298.15 K, x1 = 0.6988 | 0.871 ± 0.028
298.15 K, x1 = 0.7986 | 0.802 ± 0.025
298.15 K, x1 = 0.9133 | 0.751 ± 0.024
298.15 K, x1 = 0.9663 | 0.745 ± 0.024
298.15 K, x1 = 1 | 0.749 ± 0.024
303.15 K, x1 = 0.0541 | 2.471 ± 0.079
303.15 K, x1 = 0.0951 | 2.186 ± 0.07
303.15 K, x1 = 0.1968 | 1.664 ± 0.053
303.15 K, x1 = 0.292 | 1.356 ± 0.043
303.15 K, x1 = 0.3986 | 1.131 ± 0.036
303.15 K, x1 = 0.4966 | 0.992 ± 0.031
303.15 K, x1 = 0.5963 | 0.88 ± 0.028
303.15 K, x1 = 0.6847 | 0.803 ± 0.025
303.15 K, x1 = 0.7988 | 0.733 ± 0.023
303.15 K, x1 = 0.8885 | 0.706 ± 0.022
303.15 K, x1 = 0.9493 | 0.7 ± 0.022
303.15 K, x1 = 1 | 0.699 ± 0.022
313.15 K, x1 = 0.0505 | 1.97 ± 0.063
313.15 K, x1 = 0.1009 | 1.729 ± 0.055
313.15 K, x1 = 0.2038 | 1.359 ± 0.043
313.15 K, x1 = 0.3044 | 1.12 ± 0.036
313.15 K, x1 = 0.4054 | 0.96 ± 0.03
313.15 K, x1 = 0.5077 | 0.845 ± 0.027
313.15 K, x1 = 0.5969 | 0.771 ± 0.024
313.15 K, x1 = 0.71 | 0.697 ± 0.022
313.15 K, x1 = 0.81 | 0.65 ± 0.021
313.15 K, x1 = 0.9036 | 0.623 ± 0.02
313.15 K, x1 = 0.9537 | 0.621 ± 0.02
313.15 K, x1 = 1 | 0.623 ± 0.02

CCOC(=O)OCC [diethyl carbonate] + CCCCO
Conditions | viscosity [mPa·s]
293.15 K, x1 = 0.051 | 2.5 ± 0.079
293.15 K, x1 = 0.1027 | 2.148 ± 0.068
293.15 K, x1 = 0.2008 | 1.672 ± 0.053
293.15 K, x1 = 0.2978 | 1.376 ± 0.044
293.15 K, x1 = 0.4026 | 1.173 ± 0.037
293.15 K, x1 = 0.5079 | 1.031 ± 0.033
293.15 K, x1 = 0.6014 | 0.944 ± 0.03
293.15 K, x1 = 0.7033 | 0.878 ± 0.028
293.15 K, x1 = 0.7986 | 0.841 ± 0.027
293.15 K, x1 = 0.9031 | 0.814 ± 0.026
293.15 K, x1 = 0.951 | 0.81 ± 0.026
293.15 K, x1 = 1 | 0.795 ± 0.025
298.15 K, x1 = 0.0519 | 2.203 ± 0.07
298.15 K, x1 = 0.0993 | 1.899 ± 0.06
298.15 K, x1 = 0.1996 | 1.445 ± 0.046
298.15 K, x1 = 0.2923 | 1.195 ± 0.038
298.15 K, x1 = 0.3989 | 1.03 ± 0.033
298.15 K, x1 = 0.5017 | 0.939 ± 0.03
298.15 K, x1 = 0.6016 | 0.874 ± 0.028
298.15 K, x1 = 0.7043 | 0.815 ± 0.026
298.15 K, x1 = 0.8002 | 0.766 ± 0.024
298.15 K, x1 = 0.8968 | 0.736 ± 0.023
298.15 K, x1 = 0.9471 | 0.734 ± 0.023
298.15 K, x1 = 1 | 0.749 ± 0.024
303.15 K, x1 = 0.0508 | 1.905 ± 0.06
303.15 K, x1 = 0.1004 | 1.642 ± 0.052
303.15 K, x1 = 0.2016 | 1.3 ± 0.041
303.15 K, x1 = 0.3 | 1.101 ± 0.035
303.15 K, x1 = 0.3917 | 0.977 ± 0.031
303.15 K, x1 = 0.5032 | 0.87 ± 0.027
303.15 K, x1 = 0.597 | 0.794 ± 0.025
303.15 K, x1 = 0.7099 | 0.729 ± 0.023
303.15 K, x1 = 0.8216 | 0.699 ± 0.022
303.15 K, x1 = 0.9035 | 0.697 ± 0.022
303.15 K, x1 = 0.9488 | 0.697 ± 0.022
303.15 K, x1 = 1 | 0.699 ± 0.022
313.15 K, x1 = 0.0506 | 1.535 ± 0.048
313.15 K, x1 = 0.1007 | 1.356 ± 0.043
313.15 K, x1 = 0.2005 | 1.09 ± 0.034
313.15 K, x1 = 0.2975 | 0.926 ± 0.029
313.15 K, x1 = 0.4122 | 0.802 ± 0.025
313.15 K, x1 = 0.5035 | 0.741 ± 0.023
313.15 K, x1 = 0.6084 | 0.691 ± 0.022
313.15 K, x1 = 0.7044 | 0.656 ± 0.021
313.15 K, x1 = 0.8055 | 0.634 ± 0.02
313.15 K, x1 = 0.9016 | 0.618 ± 0.02
313.15 K, x1 = 0.9486 | 0.617 ± 0.02
313.15 K, x1 = 1 | 0.623 ± 0.02
